Experimental findings from ChEMBL document CHEMBL1156105 (J Med Chem, 2009) are described below.

Data set [1] concerns Plasma. As to the kind of experiment: Metabolic stability in 50% human plasma assessed as half life at pH 7.4 by RP-HPLC. Type of data set: ADME, cell-free.
Data set [2] relates to Plasma. As to the kind of experiment: Metabolic stability in 50% human plasma assessed as aspirin release at pH 7.4 by RP-HPLC. Also: time not given here. Format: ADME, cell-free.
The test system of data set [3] is Plasma. As to the kind of experiment: Metabolic stability in 10% human plasma assessed as aspirin release at pH 7.4 by RP-HPLC. Also: time not given here. Type of data set: ADME, cell-free.
Data set [4] is described as follows: Metabolic stability in 10% human plasma assessed as half life at pH 7.4 by RP-HPLC.
For data set [5], the system named is Plasma. As to the kind of experiment: Metabolic stability in 50% human plasma assessed as half life at pH 7.4 by RP-HPLC in presence of BuChE-inhibitor dibucaine. Type of data set: ADME, cell-free.
Data set [6] has as its system Plasma. As to the kind of experiment: Metabolic stability in 50% human plasma assessed as half life at pH 7.4 by RP-HPLC in presence of AChE-inhibitor PMSF. Type of data set: ADME, cell-free.
Data set [7] concerns Plasma. As to the kind of experiment: Metabolic stability in 50% human plasma assessed as half life at pH 7.4 by RP-HPLC in presence of cholinesterase-inhibitor eserine. Format: ADME, cell-free.
The subject of data set [8] is Plasma. As to the kind of experiment: Metabolic stability in 50% human plasma assessed as half life at pH 7.4 by RP-HPLC in presence of BuChE-inhibitor isoOMPA. Type of data set: ADME, cell-free.
The subject of data set [9] is Plasma. As to the kind of experiment: Metabolic stability in 50% human plasma assessed as aspirin release at pH 7.4 by RP-HPLC in presence of BuChE-inhibitor dibucaine. Type of data set: ADME, cell-free.
Data set [10] relates to Plasma. As to the kind of experiment: Metabolic stability in 50% human plasma assessed as aspirin release at pH 7.4 by RP-HPLC in presence of AChE-inhibitor PMSF. Type of data set: ADME, cell-free.
Data set [11] in a line: Metabolic stability in 50% human plasma assessed as half life at pH 7.4 by RP-HPLC.

Molecules are shown by their SMILES.

`CC(=O)Oc1ccccc1C(=O)O[C@H]1CO[C@H]2[C@@H]1OC[C@H]2OC(=O)c1cnoc1C`: the t1/2 in the data set with Plasma [1] was determined as 0.06 min. Moreover, the Activity in the data set with Plasma [2] was 14%; with Plasma [3], 18%. Moreover, in [4], the half-life turned out to be 11.6 min.

With `CC(=O)Oc1ccccc1C(=O)O[C@H]1CO[C@H]2[C@@H]1OC[C@H]2O[N+](=O)[O-]`, the t1/2 is 4.2 min in the data set with Plasma [5], 2.9 min in the data set with Plasma [6], 178 min with Plasma [7] and 38.3 min with Plasma [8]. For the same compound, the Activity in the data set on Plasma [2] came to 7.7%; in the data set on Plasma [3], 9.1%; in the data set on Plasma [9] it was 6.75%; in the data set on Plasma [10], 6.2%. Also, the half-life in data set [4] is 0.867 min; in data set [11], 0.188 min.
